# Results from patent US7071231B2, “Naphthalene ureas as glucose uptake enhancers” (Telik, Inc., priority 1999, dated 2006).
# System: 3T3 L1 fibroblasts
# Assay: Glucose transport activity assay (14C-2-deoxy-D-glucose uptake)
# Type: cell-based
# Settings: EC (effective concentration) for increase in glucose transport; 14C-2-deoxy-D-glucose, 3T3 L1 cells; read-out: Concentration (μM) to reach >150% activity of vehicle control
# Procedure: Glucose Transport Activity Assay.
# Stimulation of the insulin receptor leads to the transport of glucose from the blood into cells, thus modulating blood glucose levels. 3T3 L1 fibroblasts (ATCC) were grown in Dulbecco's modified Eagle's medium (DMEM) with 10% fetal bovine serum (FBS). The cells were plated at a density of 3×10^4 cells/well in 24-well plates. Two days after confluence was reached, the cells were treated for 3 days with 0.5 mM isobutylmethylxanthine (IBMX), 1 μM dexamethasone, and 1.7 μM insulin. The cells were then transferred to DMEM with 10% FBS and supplemented with 1.7μM insulin for 2 more days. The cells were maintained in DMEM with 10% FBS for an additional 4 days. Finally the cells were serum-starved overnight in 0.1% bovine serum albumin (BSA) in DMEM.
# The following day, the medium was replaced with 150 mM NaCl, 1.7 mM KCl, 0.9 mM CaCl2, K2HPO4 (pH 7.4) to which were added either the experimental compounds or their vehicle (DMSO). Insulin or its vehicle (0.01% BSA) was diluted in the assay buffer (containing test compound or vehicle, respectively) to final concentration of […]. After incubation for 30 min at 37° C., 5 μCi/ml ^14C-2-deoxy-D-glucose was added, and the incubation was continued for additional 30 min at 37° C. The cells were then washed 3 times with ice-cold PBS/20 mM glucose and lysed in 250 μl of lysis buffer (50 mM HEPES pH 7.6, 1% Triton X-100) for 30 min at room temperature. Radioactivity in the lysate was quantified by scintillation counting.
# Once ^14C-2-deoxy-D-glucose is transported into the cell, it is not released. Glucose transport is, therefore, proportional to the amount of radioactivity in the lysate. The concentration of compound necessary to produce an increase in glucose transport to greater than 150% of the vehicle control (generally representing the sum of the standard deviation of the vehicle control plus the largest standard deviation of a test sample) was recorded as the EC (effective concentration). Shown in FIG. 3 is glucose uptake by cells at various concentrations when treated with Compound 13 and Compound 15.
row,Compound,EC (150% of vehicle control) [µM]
1,5-({[7-({[(7-{[(3-carboxy-4-chlorophenyl)amino]sulfonyl}(2-naphthyl))amino]iminomethyl}amino)(2-naphthyl)]sulfonyl}amino)-2-chlorobenzoic acid [Compound 160],3.2
2,5-[({7-[3-(7-{[(3-carboxy-4-hydroxyphenyl)amino]sulfonyl}(2-naphthyl))-2-oxoimidazolidinyl](2-naphthyl)}sulfonyl)amino]-2-hydroxybenzoic acid [Compound 122],32

# Same assay, conditions: Mus musculus, 3T3-L1, read-out: Concentration (μM) to reach >150% activity of vehicle control
row,Compound,EC (150% of vehicle control) [µM]
1,"O=C(Nc1ccc2ccc(S(=O)(=O)Nc3ccc([N+](=O)[O-])c(C(=O)O)c3)cc2c1)Nc1ccc2ccc(S(=O)(=O)Nc3ccc([N+](=O)[O-])c(C(=O)O)c3)cc2c1 [Compound 38, 5-{[(7-{[N-(7-{[(3-carboxy-4-nitrophenyl)amino]sulfonyl}(2-naphthyl))carbamoyl]amino}(2-naphthyl))sulfonyl)amino}-2-nitrobenzoic acid]",3.2

# Same assay, conditions: Mus musculus; EC (effective concentration) for increase in glucose transport; 14C-2-deoxy-D-glucose, 3T3 L1 cells; read-out: Concentration (μM) to reach >150% activity of vehicle control
row,Compound,EC (150% of vehicle control) [µM]
1,"O=C(Nc1ccc2ccc(S(=O)(=O)O)cc2c1)Nc1ccc2ccc(S(=O)(=O)Nc3ccc(S(=O)(=O)O)cc3)cc2c1 [Compound 20, 7-{[(7-{[(4-sulfophenyl)amino]sulfonyl}-2-naphthyl)amino]carbonylamino}naphthalene-2-sulfonic acid]",3.2
2,"O=C(Nc1ccc2ccc(S(=O)(=O)Nc3ccc(S(=O)(=O)O)cc3)cc2c1)Nc1ccc2ccc(S(=O)(=O)Nc3ccc(S(=O)(=O)O)cc3)cc2c1 [Compound 22, 4{[(7-{[N-(7-{[(4-sulfophenyl)amino]sulfonyl}-2-naphthyl)carbamoyl]amino}-2-naphthyl)sulfonyl]amino}benzenesulfonic acid]",3.2
3,"O=C(Nc1ccc2ccc(S(=O)(=O)Nc3ccc(C(=O)O)cc3)cc2c1)Nc1ccc2ccc(S(=O)(=O)Nc3ccc(C(=O)O)cc3)cc2c1 [Compound 25, 4-{[(7-{[N-(7-{[(4-carboxyphenyl)amino]sulfonyl}-2-naphthyl)carbamoyl]amino}-2-naphthyl)sulfonyl]amino}benzoic acid]",3.2
4,"O=C(Nc1ccc2ccc(S(=O)(=O)O)cc2c1)Nc1ccc2ccc(S(=O)(=O)Nc3cccc(C(=O)O)c3O)cc2c1 [Compound 30, 2-hydroxy-3-{[(7-{[N-(7-sulfo(2-naphthyl))carbamoyl]amino}(2-naphthyl))sulfonyl]amino}benzoic acid]",3.2
5,"O=C(Nc1ccc2ccc(S(=O)(=O)Nc3cccc(C(=O)O)c3O)cc2c1)Nc1ccc2ccc(S(=O)(=O)Nc3cccc(C(=O)O)c3O)cc2c1 [Compound 31, 3-{[(7-{[N-(7-{[(3-carboxy-2-hydroxyphenyl)amino]sulfonyl}(2-naphthyl))carbamoyl]amino}(2-naphthyl))sulfonyl]amino}-2-hydroxybenzoic acid]",3.2
6,"O=C(Nc1ccc2ccc(S(=O)(=O)O)cc2c1)Nc1ccc2ccc(S(=O)(=O)Nc3ccc(O)c(C(=O)O)c3)cc2c1 [Compound 32, 2-hydroxy-5-{[(7-{[N-(7-sulfo(2-naphthyl))carbamoyl]amino}(2-naphthyl))sulfonyl]amino}benzoic acid]",32
7,"O=C(Nc1ccc2ccc(S(=O)(=O)Nc3ccc(O)c(C(=O)O)c3)cc2c1)Nc1ccc2ccc(S(=O)(=O)Nc3ccc(O)c(C(=O)O)c3)cc2c1 [Compound 33, 5-{[(7-{[N-(7-{[(3-carboxy-4-hydroxyphenyl)amino]sulfonyl}(2-naphthyl))carbamoyl]amino}(2-naphthyl))sulfonyl]amino}-2-hydroxybenzoic acid]",3.2
8,"O=C(Nc1ccc2ccc(S(=O)(=O)O)cc2c1)Nc1ccc2ccc(S(=O)(=O)Nc3ccc(C(=O)O)c(O)c3)cc2c1 [Compound 34, 2-hydroxy-4-{[(7-{[N-(7-sulfo(2-naphthyl))carbamoyl]amino}(2-naphthyl))sulfonyl]amino}benzoic acid]",> 32
9,"O=C(Nc1ccc2ccc(S(=O)(=O)Nc3ccc(C(=O)O)c(O)c3)cc2c1)Nc1ccc2ccc(S(=O)(=O)Nc3ccc(C(=O)O)c(O)c3)cc2c1 [Compound 35, 4-{[(7-{[N-(7-{[(4-carboxy-3-hydroxyphenyl)amino]sulfonyl}(2-naphthyl))carbamoyl]amino}(2-naphthyl))sulfonyl]amino}-2-hydroxybenzoic acid]",32
10,"O=C(Nc1ccc2ccc(S(=O)(=O)O)cc2c1)Nc1ccc2ccc(S(=O)(=O)Nc3ccc([N+](=O)[O-])c(C(=O)O)c3)cc2c1 [Compound 37, 2-nitro-5-{[(7-{[N-(7-sulfo(2-naphthyl))carbamoyl]amino}(2-naphthyl))sulfonyl]amino}benzoic acid]",3.2
11,"O=C(Nc1ccc2c(O)cc(S(=O)(=O)Nc3ccc(O)c(C(=O)O)c3)cc2c1)Nc1ccc2c(O)cc(S(=O)(=O)Nc3ccc(O)c(C(=O)O)c3)cc2c1 [Compound 43, 5-{[(7-{[N-(7-{[(3-carboxy-4-hydroxyphenyl)amino]sulfonyl}-5-hydroxy(2-naphthyl))carbamoyl]amino}-4-hydroxy(2-naphthyl))sulfonyl]amino}-2-hydroxybenzoic acid]",10
12,"O=C(Nc1ccc2ccc(S(=O)(=O)Nc3ccccc3C(=O)O)cc2c1)Nc1ccc2ccc(S(=O)(=O)Nc3ccccc3C(=O)O)cc2c1 [Compound 45, 2-{[(7-{[N-(7-{[(2-carboxyphenyl)amino]sulfonyl}-2-naphthyl)carbamoyl]amino}-2-naphthyl)sulfonyl]amino}benzoic acid]",3.2
13,"O=C(Nc1ccc2c(O)cc(S(=O)(=O)Nc3ccccc3C(=O)O)cc2c1)Nc1ccc2c(O)cc(S(=O)(=O)Nc3ccccc3C(=O)O)cc2c1 [Compound 47, 2-{[(7-{[N-(7-{[(2-carboxyphenyl)amino]sulfonyl}-5-hydroxy(2-naphthyl))carbamoyl]amino}-4-hydroxy-2-naphthyl)sulfonyl]amino}benzoic acid]",3.2
14,"O=C(Nc1ccc2c(O)cc(S(=O)(=O)Nc3ccc(Cl)c(C(=O)O)c3)cc2c1)Nc1ccc2c(O)cc(S(=O)(=O)Nc3ccc(Cl)c(C(=O)O)c3)cc2c1 [Compound 49, 5-{[(7-{[N-(7-{[(3-carboxy-4-chlorophenyl)amino]sulfonyl}-5-hydroxy(2-naphthyl))carbamoyl]amino}-4-hydroxy(2-naphthyl))sulfonyl]amino}-2-chlorobenzoic acid]",3.2
15,"COC(=O)c1cc(NS(=O)(=O)c2cc(O)c3ccc(NC(=O)Nc4ccc5c(O)cc(S(=O)(=O)Nc6cc(C(=O)OC)cc(C(=O)OC)c6)cc5c4)cc3c2)cc(C(=O)OC)c1 [Compound 50, methyl 3-({[7-({[7-({[3,5-bis(methoxycarbonyl)phenyl]amino}sulfonyl)-5-hydroxy(2-naphthyl)]amino}carbonylamino)-4-hydroxy(2-naphthyl)]sulfonyl}amino)-5-(methoxycarbonyl)benzoate]",3.2
16,"O=C(Nc1ccc2c(O)cc(S(=O)(=O)Nc3cc(C(=O)O)cc(C(=O)O)c3)cc2c1)Nc1ccc2c(O)cc(S(=O)(=O)Nc3cc(C(=O)O)cc(C(=O)O)c3)cc2c1 [Compound 51, 5-{[(7-{[N-(7-{[(3,5-dicarboxyphenyl)amino]sulfonyl}-5-hydroxy(2-naphthyl))carbamoyl]amino}-4-hydroxy-2-naphthyl)sulfonyl]amino}benzene-1,3-dicarboxylic acid]",> 32
17,"O=C(O)Cc1cccc(NS(=O)(=O)c2cc(O)c3ccc(NC(=O)Nc4ccc5c(O)cc(S(=O)(=O)Nc6cccc(CC(=O)O)c6)cc5c4)cc3c2)c1 [Compound 52, 2-[3-({[7-({[7-({[3-(carboxymethyl)phenyl]amino}sulfonyl)-5-hydroxy(2-naphthyl)]amino}carbonylamino)-4-hydroxy-2-naphthyl]sulfonyl}amino)phenyl]acetic acid]",3.2
18,"O=C(Nc1ccc2ccc(S(=O)(=O)Nc3ccc(Br)c(C(=O)O)c3)cc2c1)Nc1ccc2ccc(S(=O)(=O)Nc3ccc(Br)c(C(=O)O)c3)cc2c1 [Compound 56, 2-bromo-5-{[(7-{[N-(7-{[(4-bromo-3-carboxyphenyl)amino]sulfonyl}(2-naphthyl))carbamoyl]amino}(2-naphthyl))sulfonyl]amino}benzoic acid]",3.2
19,"Cc1ccc(NS(=O)(=O)c2ccc3ccc(NC(=O)Nc4ccc5ccc(S(=O)(=O)Nc6ccc(C)c(C(=O)O)c6)cc5c4)cc3c2)cc1C(=O)O [Compound 57, 5-{[(7-{[N-(7-{[(3-carboxy-4-methylphenyl)amino]sulfonyl}(2-naphthyl))carbamoyl]amino}(2-naphthyl))sulfonyl]amino}-2-methylbenzoic acid]",3.2
